One data set concerns the target hNav1.5 (Homo sapiens, UniProt Q14524). Briefly: cell-based. The settings on record: QPatch; read-out: Fitted Emax hNav1.5. A general note: Patch clamp records ionic current or voltage across a cell membrane.
In the next data set the target is hNav1.4 (Homo sapiens, UniProt P35499). Briefly: cell-based. The settings on record: QPatch; read-out: Fitted Emax hNav1.4.
The next data set deals with hNav1.1 (Homo sapiens, UniProt P35498). Briefly: cell-based. The settings on record: QPatch; read-out: Fitted Emax hNav1.1.
A further data set concerns the target hNav1.2 (Homo sapiens, UniProt Q99250). Briefly: cell-based. The settings on record: QPatch; read-out: Fitted Emax hNav1.2.
The target of the next data set is hNav1.6 (Homo sapiens, UniProt Q9UQD0). Briefly: cell-based. The settings on record: QPatch.
Sequence of hNav1.6 (Q9UQD0 whole entry): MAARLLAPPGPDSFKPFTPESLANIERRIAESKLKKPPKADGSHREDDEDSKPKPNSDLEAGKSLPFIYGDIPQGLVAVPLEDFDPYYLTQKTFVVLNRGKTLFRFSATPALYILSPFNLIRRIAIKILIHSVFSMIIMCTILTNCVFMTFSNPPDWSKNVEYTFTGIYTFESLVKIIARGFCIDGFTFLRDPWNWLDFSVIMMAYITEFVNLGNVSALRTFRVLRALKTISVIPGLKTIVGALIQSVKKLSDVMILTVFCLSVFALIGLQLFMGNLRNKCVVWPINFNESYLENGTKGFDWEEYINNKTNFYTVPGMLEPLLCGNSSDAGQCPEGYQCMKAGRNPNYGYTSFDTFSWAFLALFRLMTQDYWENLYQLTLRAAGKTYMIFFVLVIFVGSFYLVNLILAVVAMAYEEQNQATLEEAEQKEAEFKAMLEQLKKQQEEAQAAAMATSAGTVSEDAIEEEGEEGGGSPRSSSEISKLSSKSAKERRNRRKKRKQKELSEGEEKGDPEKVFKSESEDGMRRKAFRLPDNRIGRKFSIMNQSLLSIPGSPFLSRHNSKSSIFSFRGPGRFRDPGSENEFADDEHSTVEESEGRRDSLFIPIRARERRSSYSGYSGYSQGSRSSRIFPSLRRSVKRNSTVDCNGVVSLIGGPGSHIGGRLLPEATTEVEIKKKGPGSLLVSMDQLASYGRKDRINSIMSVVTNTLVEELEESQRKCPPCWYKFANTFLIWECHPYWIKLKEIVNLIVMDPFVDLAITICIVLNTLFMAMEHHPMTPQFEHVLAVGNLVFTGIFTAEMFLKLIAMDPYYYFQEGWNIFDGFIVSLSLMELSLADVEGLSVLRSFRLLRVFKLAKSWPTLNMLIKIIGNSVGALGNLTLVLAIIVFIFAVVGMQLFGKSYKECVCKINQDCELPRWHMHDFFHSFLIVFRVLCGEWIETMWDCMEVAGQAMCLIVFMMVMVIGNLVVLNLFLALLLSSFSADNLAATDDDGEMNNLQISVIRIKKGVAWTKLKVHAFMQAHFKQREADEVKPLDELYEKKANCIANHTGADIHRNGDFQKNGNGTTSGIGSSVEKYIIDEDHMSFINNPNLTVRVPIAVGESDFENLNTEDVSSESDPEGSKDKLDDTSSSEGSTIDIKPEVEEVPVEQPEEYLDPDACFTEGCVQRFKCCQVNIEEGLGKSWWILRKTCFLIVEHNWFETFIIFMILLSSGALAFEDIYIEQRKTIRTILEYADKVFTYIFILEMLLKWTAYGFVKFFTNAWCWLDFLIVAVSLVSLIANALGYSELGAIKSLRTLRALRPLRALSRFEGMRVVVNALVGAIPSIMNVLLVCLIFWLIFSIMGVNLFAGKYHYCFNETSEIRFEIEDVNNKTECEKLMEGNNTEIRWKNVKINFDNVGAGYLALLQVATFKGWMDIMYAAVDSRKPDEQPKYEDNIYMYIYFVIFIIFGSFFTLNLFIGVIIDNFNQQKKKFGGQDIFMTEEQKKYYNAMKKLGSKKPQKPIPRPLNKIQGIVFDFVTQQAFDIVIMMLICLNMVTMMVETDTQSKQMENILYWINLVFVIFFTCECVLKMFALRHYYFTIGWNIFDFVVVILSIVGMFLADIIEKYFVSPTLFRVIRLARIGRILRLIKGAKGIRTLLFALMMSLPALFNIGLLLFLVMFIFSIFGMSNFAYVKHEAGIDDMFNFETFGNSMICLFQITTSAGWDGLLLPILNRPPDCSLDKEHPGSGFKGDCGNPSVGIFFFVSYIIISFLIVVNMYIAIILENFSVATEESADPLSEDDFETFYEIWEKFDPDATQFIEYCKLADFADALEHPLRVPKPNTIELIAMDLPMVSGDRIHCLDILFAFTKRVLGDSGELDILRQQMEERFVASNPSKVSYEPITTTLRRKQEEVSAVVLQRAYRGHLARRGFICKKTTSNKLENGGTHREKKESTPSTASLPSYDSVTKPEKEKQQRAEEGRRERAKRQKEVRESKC
For data set [1] the following is noted: in words. From the text:
Rats ~250–300 g were placed under Isoflurane anesthesia (4% for induction, 2% for maintenance). A single hip and proximal hind-leg area were shaved and the injection area prepped with alternating applications of chlorhexidine 2% soln. and isopropyl alcohol 70%. A pelvic notch just distal to the greater trochanter was located with palpation and a starter hole was made through the dermis using a 20G hypodermic needle. A 22G nerve stimulating injection needle (ProBloc II, cat#HN3S-40, Halyard Health) connected to a peripheral nerve stimulation device (EZstim II model ES400, Life-Tech, Inc.) was placed into the starter hole. The nerve stimulator was set to 0.7 mA and the injection needle was gently advanced in a line parallel to the femur until localized dorsal or plantar flexion of the foot was observed. Generalized muscle twitching involving primary twitching on the quadriceps muscle was considered a negative response and the needle was carefully re-positioned until the appropriate localized foot flicking was observed. […] The device was increased back to 0.2 mA and if twitching was still observed, the 100 μL injection was given.

The next data set concerns the target hNav1.3 (Homo sapiens, UniProt Q9NY46). Briefly: cell-based. The settings on record: QPatch; read-out: Fitted Emax hNav1.3.
The conditions of data set [2]: for abnormal proprioception of hind paws / abnormal stepping / flaccidity / hindlimb weakness: baseline 0/7.
The mark [3] stands for this setting: 2 μg/10 μl IT, 30 min post dosing.
Where [4] appears, read: 2 μg/10 μl IT, 90 min post dosing.
The mark [5] stands for this setting: 2 μg/10 μl IT, formalin study, in words.

For orientation: Emax means the greatest response seen or fitted, relative to the assay's reference.

Read-outs that look alike come from different tables or passages of the source.

Sequence of hNav1.4 (P35499 whole entry): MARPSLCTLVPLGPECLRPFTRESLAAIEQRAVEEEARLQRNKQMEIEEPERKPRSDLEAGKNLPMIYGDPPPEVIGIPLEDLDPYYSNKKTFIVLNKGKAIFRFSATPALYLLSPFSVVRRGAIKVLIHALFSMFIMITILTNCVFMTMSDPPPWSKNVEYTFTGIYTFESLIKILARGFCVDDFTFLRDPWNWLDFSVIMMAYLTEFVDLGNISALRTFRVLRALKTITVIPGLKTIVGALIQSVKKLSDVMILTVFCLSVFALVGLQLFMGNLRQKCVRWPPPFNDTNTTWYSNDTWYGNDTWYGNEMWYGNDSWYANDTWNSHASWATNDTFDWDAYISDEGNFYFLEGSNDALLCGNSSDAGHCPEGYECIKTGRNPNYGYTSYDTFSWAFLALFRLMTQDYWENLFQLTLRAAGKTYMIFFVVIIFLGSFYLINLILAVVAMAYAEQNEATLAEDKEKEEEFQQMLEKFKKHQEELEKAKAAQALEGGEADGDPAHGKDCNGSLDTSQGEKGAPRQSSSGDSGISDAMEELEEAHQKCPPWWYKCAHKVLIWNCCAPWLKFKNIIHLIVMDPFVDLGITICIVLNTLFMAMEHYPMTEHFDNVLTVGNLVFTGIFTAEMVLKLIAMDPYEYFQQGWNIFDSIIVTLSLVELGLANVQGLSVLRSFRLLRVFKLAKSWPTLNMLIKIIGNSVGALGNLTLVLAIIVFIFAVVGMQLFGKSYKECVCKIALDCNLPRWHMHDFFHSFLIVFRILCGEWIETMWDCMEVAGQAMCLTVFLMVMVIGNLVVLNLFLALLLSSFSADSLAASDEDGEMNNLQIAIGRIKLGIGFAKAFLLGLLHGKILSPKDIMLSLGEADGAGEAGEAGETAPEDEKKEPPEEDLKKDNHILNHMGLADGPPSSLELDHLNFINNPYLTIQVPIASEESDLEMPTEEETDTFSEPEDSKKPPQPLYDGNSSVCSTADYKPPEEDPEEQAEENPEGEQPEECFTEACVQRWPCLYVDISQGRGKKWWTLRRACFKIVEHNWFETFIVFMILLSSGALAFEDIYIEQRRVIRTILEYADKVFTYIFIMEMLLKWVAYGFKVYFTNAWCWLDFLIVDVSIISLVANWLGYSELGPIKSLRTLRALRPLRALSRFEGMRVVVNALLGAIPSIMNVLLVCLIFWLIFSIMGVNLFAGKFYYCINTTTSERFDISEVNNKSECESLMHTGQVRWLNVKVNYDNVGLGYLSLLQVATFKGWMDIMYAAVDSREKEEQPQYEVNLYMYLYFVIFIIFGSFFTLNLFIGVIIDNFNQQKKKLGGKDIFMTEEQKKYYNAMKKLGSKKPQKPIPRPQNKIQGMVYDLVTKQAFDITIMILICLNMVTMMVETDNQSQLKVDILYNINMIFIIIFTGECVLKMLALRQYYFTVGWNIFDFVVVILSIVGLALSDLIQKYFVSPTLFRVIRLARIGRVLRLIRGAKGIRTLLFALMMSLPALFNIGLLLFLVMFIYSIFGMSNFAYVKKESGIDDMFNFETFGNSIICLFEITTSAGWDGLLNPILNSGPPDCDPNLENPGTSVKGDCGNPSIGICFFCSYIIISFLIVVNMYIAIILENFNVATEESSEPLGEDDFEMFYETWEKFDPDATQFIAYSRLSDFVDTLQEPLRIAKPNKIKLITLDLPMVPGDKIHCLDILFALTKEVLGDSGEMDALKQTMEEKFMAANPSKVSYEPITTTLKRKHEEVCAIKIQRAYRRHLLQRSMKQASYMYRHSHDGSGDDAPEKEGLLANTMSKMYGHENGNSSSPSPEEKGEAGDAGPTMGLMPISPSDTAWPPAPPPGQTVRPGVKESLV

Regarding `CSCC[C@@H]1NC(=O)CNC(=O)[C@H](CCC(=O)O)NC(=O)[C@@H]2CSSC[C@H](NC(=O)[C@@H](N)Cc3ccc(O)cc3)C(=O)N[C@@H](CCC(N)=O)C(=O)N[C@@H](CCCCN)C(=O)N[C@@H](Cc3c[nH]c4ccccc34)C(=O)N[C@@H](CCSC)C(=O)N[C@@H](Cc3c[nH]c4ccccc34)C(=O)N[C@@H]([C@@H](C)O)C(=O)N[C@H]3CSSC[C@H](NC(=O)[C@H](C(C)C)NC1=O)C(=O)N[C@@H](CCCNC(=N)N)C(=O)N[C@@H](CC(C)C)C(=O)N[C@@H](Cc1c[nH]c4ccccc14)C(=O)N[C@H](C(=O)N[C@@H](CCCCN)C(=O)N[C@@H](CCCCN)C(=O)N[C@@H](CCCCN)C(=O)N[C@@H](CC(C)C)C(=O)N[C@@H](Cc1c[nH]c4ccccc14)C(=O)O)CSSC[C@H](NC(=O)[C@H](CCCCN)NC(=O)[C@H](CCCNC(=N)N)NC(=O)[C@H](CCC(=O)O)NC(=O)[C@H](CO)NC(=O)[C@H](CC(=O)O)NC3=O)C(=O)N2` [ProTX-II, reference compound], the Emax at hNav1.5, at hNav1.4, at hNav1.1, on hNav1.2, on hNav1.6 (read-out: Fitted Emax hNav1.6) and on hNav1.3 was 100% each time. For the same compound, the IC50 on hNav1.6 (CHO cells, holding −60 mV, 0.1% BSA, ~22 °C, ± SEM, read-out: pIC50 hNav1.6 (converted)) was 31.6 nM. The ambulation entry in data set [1] (250 μg/100 μl peri-sciatic) is “No effect upon ambulation”. Further, in data set [1] (250 μg/100 μl), the “tolerability, peri-sciatic” value is reported as “well tolerated at the highest dose tested”. For the same compound, the “abnormal proprioception of hind paws” value in data set [2] (setting [3]) is reported as 2/7; in data set [2] (setting [4]), 0/7. Moreover, the abnormal stepping in data set [2] (setting [3]) is reported as 2/7; in data set [2] (setting [4]), 0/7. For the same compound, the flaccidity is on record as 1/7 in data set [2] (setting [3]) and 0/7 in data set [2] (setting [4]). Also, the hindlimb weakness in data set [2] (setting [3]) and in data set [2] (setting [4]) was 2/7 throughout. Besides, the abrasions and scabs entry in data set [2] (setting [5]) was “Abrasions and scabs to the face, neck, and shoulders were observed in some”. The “effect on motor function” value in data set [2] (setting [5]) is listed as “without any severe effect on motor function”. For the same compound, the “motor effects just above efficacious dose” value in data set [2] (rat, IT, in words) is recorded as “exerts profound motor effects at doses just above the efficacious analgesic dose”. The “motor effects above maximum tolerated IT dose” value in data set [2] (rat, higher than 2 μg/10 μl, in words) was “dose-related motor abnormalities that progressed from transient rear weakness, to paralysis of both the hind and forelimbs, slowing of respiration and death”. Further, the “maximum tolerated dose (MTD), IT” value in data set [2] (rat, intrathecal) is on record as 2 μg/10 μl. Also, the “lesions to the face and shoulders” value in data set [2] (rats, in words) is “often noticed”.

(Values after publication PMC5206724, “Insensitivity to pain induced by a potent selective closed-state Nav1.7 inhibitor” (Scientific Reports, 2017).)
